Data from PMC6315362, “Cytotoxic Potential of the Novel Horseshoe Crab Peptide Polyphemusin III” (Marine Drugs, 2018).
Where a SMILES comes first, the peptide text is derived from it. Bridges are numbered along the chain shown (N, C = ends).

What was measured:
human red blood cells = assay: Hemolytic activity assay; format: cell-based; conditions: for hemolysis at the maximal concentration: 100 µM peptide, human red blood cells 4% (v/v) in PBS pH 7.4, 1.5 h 37 °C, 0.1% Triton X-100 = 100%
Protocol: Testing of the hemolytic activity of polyphemusins and tachyplesins was performed using fresh human red blood cells (hBRC). Permeabilization of erythrocyte cytoplasmic membrane results in lysis followed by the release of hemoglobin. hBRC were washed three times with phosphate buffered saline (PBS: 10 mM Na2HPO4, 1.76 mM K2HPO4, pH 7.4, containing […], and 2.7 mM KCl). Two-fold serial dilutions of the peptide solutions were added to 50 μL aliquots of hRBC in the 96-well microplate. The final hBRC concentration was of 4% (v/v) in each well, and the final volume of suspension was 100 μL. After incubation of suspensions for 1.5 h at 37 °C under stirring at 1000 rpm, centrifugation of plates was done at 700 g for 5 min. The supernatant 50 μL aliquots were then transferred into flat-bottomed 96-well microplates. The absorbance at 405 nm was measured in a microplate reader (Eppendorf, Hamburg, Germany), allowing the detection of hemoglobin release. 0.1% Triton X-100 caused a complete lysis of erythrocytes, thus hBRC treated with Triton X-100 were used as a positive control. […] The percentage of hemolysis was calculated using the following Equation (1):Hemolysis (%) = (OD405 sample − OD405 0% lysis control)/(OD405 100% lysis control − OD405 0% lysis control) × 100%(1)
The quantitative data resulted from two series of experiments were represented as average means with standard deviations. The experiments were carried out using hBRC obtained from human blood samples of independent donors.

B. subtilis B-886 = assay: Antimicrobial assay, broth microdilution MIC; format: cell-based, Bacillus subtilis; conditions: B. subtilis B-886, Gram +, MH medium with NaCl, 24 h 37 °C, median of three independent triplicated experiments
Protocol: Bacterial test cultures were grown in the Mueller-Hinton (MH) medium at 37 °C to mid-log phase and then diluted with the 2 x MH medium supplemented with 1.8% NaCl. 50 µL of the bacterial suspension with a final cell concentration of 10^6 CFU/mL were added to aliquots of 50 µL of the peptide solutions and serially diluted with sterilized 0.1% bovine serum albumin in 96-well flat-bottom polystyrene microplates (Eppendorf, Hamburg, Germany). Bacterial cells were incubated for 24 h at 37 °C and 900 rpm on the plate thermoshaker (Biosan, Riga, Latvia). The minimum inhibitory concentrations (MIC) were determined as the lowest peptide concentration that prevented growth of a test microorganism observed as visible turbidity. The results were expressed as median values of three independent triplicated experiments. Assessment of antimicrobial activities of the recombinant PM III, other polyphemusins, and tachyplesins was conducted against Gram-negative (Escherichia coli ML-35p, Klebsiella pneumoniae (clinical isolate, CI 287), Pseudomonas aeruginosa PAO1) and Gram-positive (Staphylococcus aureus ATCC 29213, Staphylococcus aureus 209P, Bacillus subtilis B-886, Micrococcus luteus B-1314) bacteria.

[1] = test system: Gram-negative and Gram-positive bacteria; conditions: natural and synthetic peptides; cited from earlier work
Protocol: Our experimental data for the obtained recombinant PM I are in line with those obtained earlier for synthetic PM I against Gram-negative and Gram-positive bacteria (with reported MICs not exceeding 1 μM).

[2] = RP-HPLC retention time as measure of hydrophobicity; format: physicochemical; conditions: semi-preparative RP-HPLC, C18 column, linear gradient 5 to 80% (v/v) acetonitrile in water with 0.1% TFA within 1 h; used as indicator of hydrophobicity
Text: The PM III IC50 values were lower than those determined for PM I and PM II. We speculate that the higher cytotoxicity of PM III might be due to its higher hydrophobicity. In comparison to other tested peptides, the retention time of PM III measured during RP-HPLC indicated its higher hydrophobicity (Table 1). […] Increased hydrophobicity of these analogs caused higher cytotoxic effects. […] Cell membranes contain different phospholipids, which sustain the amphipathic features due to the formation of hydrophilic and hydrophobic domains in the membrane structure. Well-known differences between the composition of bacterial and mammalian cell membranes provide the evidence for selectivity of the peptides’ action. Bacterial membranes predominantly consist of phosphatidylserine, phosphatidylglycerol, and cardiolipin having a net negative charge. Tumor cell bilayers are also enriched in anionic molecules, such as phosphatidylserine, sialylated gangliosides, O-glycosylated mucins, and heparin sulfate. In contrast, zwitterionic phospholipids—phosphatidylcholine, phosphatidylethanolamine, and sphingomyelin—are abundant in the cytoplasmic membranes of non-cancer mammalian cells. Electrically neutral normal mammalian membranes prevent their recognition by positively charged antimicrobial peptides, and binding to these membranes is enabled by hydrophobic interactions. Thus, modulation of hydrophobicity of antimicrobial peptides, and also peptoid molecules, may be followed by non-specific interaction with erythrocytes as it was shown in previously published studies. […] Suboptimal high hydrophobic properties may not only result in increased toxicity to erythrocytes, but even in a reduction of antibacterial activity. Several protegrin-1 synthetic analogs with different hydrophobicities were characterized earlier. The analog with substitutions of valine by leucine that was more hydrophobic than naturally occurring protegrin-1 and the analog with substitutions of valine by fluorinated leucine had the most hydrophobic properties than other tested peptides. […] Therefore, half-hemolysis concentration and IC50 effective concentration were in different ranges.

Compound | hemolysis at the maximal concentration (human red blood cells) | MICs (B. subtilis B-886) [µM] | MICs [1] | RP-HPLC Retention Time [2] [min] | HC50 relative to IC50 measured for the HL-60 cell line (human red blood cells; HC50 / IC50 (HL-60)) [fold] | half-hemolysis concentration (HC50) (human red blood cells; fresh human red blood cells 4% (v/v) in PBS pH 7.4, 1.5 h 37 °C, absorbance 405 nm, two independent series of triplicated experiments) [µM]
CC(C)[C@@H]1NC(=O)[C@H](CCCNC(=N)N)NC(=O)[C@H](Cc2ccccc2)NC(=O)[C@@H](NC(=O)[C@H](Cc2c[nH]c3ccccc23)NC(=O)[C@H](CCCNC(=N)N)NC(=O)[C@@H](N)CCCNC(=N)N)CSSC[C@@H](C(=O)N[C@@H](CCCNC(=N)N)C(=O)O)NC(=O)[C@H](CCCCN)NC(=O)[C@H](CCCNC(=N)N)NC(=O)[C@H](Cc2ccc(O)cc2)NC(=O)[C@@H]2CSSC[C@H](NC1=O)C(=O)N[C@@H](Cc1ccc(O)cc1)C(=O)N[C@@H](CCCCN)C(=O)NCC(=O)N[C@@H](Cc1ccccc1)C(=O)N2 [PM II, polyphemusin II] (H-RRWCFRVCYKGFCYRKCR-OH; disulfide 4-17, 8-13 (inferred); N-terminus assumed) | ~ 30% | 0.5 | exceeding 1 μM | 35.4 |  | 
CC[C@H](C)[C@@H]1NC(=O)CNC(=O)[C@H](CCCNC(=N)N)NC(=O)[C@H](Cc2ccc(O)cc2)NC(=O)[C@@H]2CSSC[C@H](NC1=O)C(=O)N[C@@H](Cc1ccc(O)cc1)C(=O)N[C@@H](CCCNC(=N)N)C(=O)N[C@@H](CCCNC(=N)N)C(=O)N[C@H](C(=O)N[C@@H](CCCNC(=N)N)C(=O)O)CSSC[C@H](NC(=O)[C@H](Cc1c[nH]c3ccccc13)NC(=O)[C@@H](N)CCCCN)C(=O)N[C@@H](Cc1ccccc1)C(=O)N[C@@H](CCCNC(=N)N)C(=O)N[C@@H](C(C)C)C(=O)N2 [TP I, tachyplesin I] (H-KWCFRVCYRGICYRRCR-OH; disulfide 3-16, 7-12 (inferred); N-terminus assumed) | 38% | 0.5 | exceeding 1 μM | 35.5 |  | 
CC[C@H](C)[C@@H]1NC(=O)CNC(=O)[C@H](CCCNC(=N)N)NC(=O)[C@H](Cc2ccc(O)cc2)NC(=O)[C@@H]2CSSC[C@H](NC1=O)C(=O)N[C@@H](Cc1ccc(O)cc1)C(=O)N[C@@H](CCCNC(=N)N)C(=O)N[C@@H](CCCCN)C(=O)N[C@H](C(=O)N[C@@H](CCCNC(=N)N)C(=O)O)CSSC[C@H](NC(=O)[C@H](Cc1c[nH]c3ccccc13)NC(=O)[C@@H](N)CCCCN)C(=O)N[C@@H](Cc1ccccc1)C(=O)N[C@@H](CCCNC(=N)N)C(=O)N[C@@H](C(C)C)C(=O)N2 [TP III, tachyplesin III] (H-KWCFRVCYRGICYRKCR-OH; disulfide 3-16, 7-12 (inferred); N-terminus assumed) | 20% | 1 |  | 35.5 |  | 
CC(C)[C@@H]1NC(=O)[C@H](CCCNC(=N)N)NC(=O)[C@H](Cc2ccccc2)NC(=O)[C@@H](NC(=O)CNC(=O)[C@H](CCCNC(=N)N)NC(=O)[C@@H](N)CCCNC(=N)N)CSSC[C@@H](C(=O)N[C@@H](CCCNC(=N)N)C(=O)O)NC(=O)[C@H](CCCNC(=N)N)NC(=O)[C@H](CCC(N)=O)NC(=O)[C@H](Cc2ccccc2)NC(=O)[C@@H]2CSSC[C@H](NC1=O)C(=O)N[C@@H](Cc1ccc(O)cc1)C(=O)N[C@@H](CCCNC(=N)N)C(=O)NCC(=O)N[C@@H](Cc1ccccc1)C(=O)N2 [PM III, polyphemusin III] (H-RRGCFRVCYRGFCFQRCR-OH; disulfide 4-17, 8-13 (inferred); N-terminus assumed) |  | 0.5 |  | 36.2 | 18 | 46
CC[C@H](C)[C@@H]1NC(=O)CNC(=O)[C@H](CCCNC(=N)N)NC(=O)[C@H](Cc2ccc(O)cc2)NC(=O)[C@@H]2CSSC[C@H](NC1=O)C(=O)N[C@@H](Cc1ccc(O)cc1)C(=O)N[C@@H](CCCNC(=N)N)C(=O)N[C@@H](CCCCN)C(=O)N[C@H](C(=O)N[C@@H](CCCNC(=N)N)C(=O)O)CSSC[C@H](NC(=O)[C@H](Cc1c[nH]c3ccccc13)NC(=O)[C@@H](N)CCCNC(=N)N)C(=O)N[C@@H](Cc1ccccc1)C(=O)N[C@@H](CCCNC(=N)N)C(=O)N[C@@H](C(C)C)C(=O)N2 [TP II, tachyplesin II] (H-RWCFRVCYRGICYRKCR-OH; disulfide 3-16, 7-12 (inferred); N-terminus assumed) | 33% | 0.5 | exceeding 1 μM | 35.9 |  | 
CC(C)[C@@H]1NC(=O)[C@H](CCCNC(=N)N)NC(=O)[C@H](Cc2ccccc2)NC(=O)[C@@H](NC(=O)[C@H](Cc2c[nH]c3ccccc23)NC(=O)[C@H](CCCNC(=N)N)NC(=O)[C@@H](N)CCCNC(=N)N)CSSC[C@@H](C(=O)N[C@@H](CCCNC(=N)N)C(=O)O)NC(=O)[C@H](CCCCN)NC(=O)[C@H](CCCNC(=N)N)NC(=O)[C@H](Cc2ccc(O)cc2)NC(=O)[C@@H]2CSSC[C@H](NC1=O)C(=O)N[C@@H](Cc1ccc(O)cc1)C(=O)N[C@@H](CCCNC(=N)N)C(=O)NCC(=O)N[C@@H](Cc1ccccc1)C(=O)N2 [PM I, polyphemusin I] (H-RRWCFRVCYRGFCYRKCR-OH; disulfide 4-17, 8-13 (inferred); N-terminus assumed) | ~ 45% | 0.25 | exceeding 1 μM | 35.5 |  | 
